{"source": "patent US20260223850A1", "about": "“SUBSTITUTED PYRROLIDONE COMPOUND, PREPARATION METHOD THEREFOR, COMPOSITION AND APPLICATION THEREOF” (QINGDAO KINGAGROOT CHEMICAL COMPOUND CO., LTD., priority 2023, published 2026)", "key": {"Huaidao (rice cultivar)": {"system": "Huaidao (rice cultivar)", "test": "Seedling stage sealing experiment for water-seeding (crop safety)", "format": "in vivo", "settings": "120 g a.i./ha, seedling stage sealing, 15 days, fresh weight control rate", "method_in_brief": "(§1)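 Seeds broadcast on soil in nutrition bowls, covered, kept moist in a water-filled box; compound in acetone diluted with water and spray-tower applied at 120, 60, 30 and 15 g a.i./ha, triplicate. Scored after 15 days in greenhouse on a 0–9 scale of fresh-weight growth control, averaged.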"}, "Echinochloa crusgalli": {"system": "Echinochloa crusgalli", "test": "Seedling stage sealing experiment for water-seeding", "format": "in vivo", "settings": "120 g a.i./ha, seedling stage sealing, 15 days, fresh weight control rate"}, "Echinochloa phyllopogon": {"system": "Echinochloa phyllopogon", "test": "Seedling stage sealing experiment for water-seeding", "format": "in vivo", "settings": "120 g a.i./ha, seedling stage sealing, 15 days, fresh weight control rate", "method_in_brief": "as §1"}, "Apple ring rot": {"system": "Apple ring rot", "test": "Fungicidal activity assay, petri dish method", "format": "cell-based", "settings": "25° C., after 4 days; for Apple ring rot/% (mycelium growth inhibition rate): 400 ppm", "experimental": "(§2) Petri dish method: The drug agent was dissolved with acetone, diluted with sterile water, and set to different levels of mass concentrations according to its activity. Under aseptic operation conditions, the pre-melted sterilized medium was quantitatively added into sterilized flasks according to the test treatment. The drug solutions were quantitatively aspirated in order from low to high concentrations, added into the above-mentioned flasks, and shaken well, respectively. Next, equal amounts of the solution were poured into 3 petri dishes with a diameter of 6 cm to prepare drug-containing plates with corresponding concentrations. In the test, a treatment without drugs was set up as the blank control and each treatment was repeated 3 times. A fungus cake was cut out from the edge of the colony of the cultured pathogens using a sterile hole puncher with a diameter of 3 mm under sterile conditions. The fungus cake was inoculated into the center of a drug-containing plate using an inoculator, with the mycelia facing up, covered with a plate cover, and cultured in an incubator at 25° C. The growth of pathogen mycelia was investigated according to the fungal growth in the blank control petri dishes after 4 days. The diameters of the colonies were measured with a caliper in millimeters (mm). Each colony was vertically measured for diameters once each by the cross method and then averaged. Based on the investigation results, the mycelium growth inhibition rate of each treatment concentration on the test target fungi was calculated in accordance with Equation (1) and (2). The unit was percentage (%).\n(§3) [formula] • wherein: D—Increase of colony diameter; D1—Diameter of colony; D2—Diameter of fungus cake.\n(§4) [formula] • wherein: I—Mycelium growth inhibition rate; D0—Increase of colony diameter of blank control; Dt—Increase of colony diameter of drug treatment."}, "Tomato gray mold": {"system": "Tomato gray mold", "test": "Fungicidal activity assay, petri dish method", "format": "cell-based", "settings": "400 ppm, 25° C., after 4 days", "experimental": "as §2, §3, §4"}, "Rice sheath blight": {"system": "Rice sheath blight", "test": "Fungicidal activity assay, petri dish method", "format": "cell-based", "settings": "25° C., after 4 days; for Rice sheath blight/% (mycelium growth inhibition rate): 400 ppm", "experimental": "as §2, §3, §4"}, "weeds [1]": {"system": "weeds", "test": "Activity assay of compositions, soil sealing treatment (S)", "format": "in vivo", "settings": "treatment S, A 15 g a.i./ha", "description": "(§5) The required active ingredient B was purchased from a reagent company or a technical material manufacturer or synthesized by a conventional method. The technical materials were all dissolved with acetone solvents and diluted with aqueous solution of 0.1% Tween® 80 emulsifier, which should be used immediately after dilution.\nThe test soil was quantitatively filled to ¾ of a pot, and then watered from the bottom of the pot to completely wet the soil to saturation. The seeds of the test weeds were accelerated to Just germinate, and then evenly and quantitatively broadcasted on the soil surface, covered with 0.5-1 cm soil according to the sizes of the seeds, and ready for use 72 hours after broadcasting.\nEach treatment was repeated 4 times. Four pots were treated each time with 20 weed seeds per pot.\nThe seeds were planted in a 20 cm*30 cm square box. Water was added to 2-3 cm deep after sowing, then injected with the drug agent using a syringe, stirred evenly, and left to stand for 2 days to dry naturally. The soil was kept moist afterwards.\n(§6) A method for investigating absolute numbers was employed. The whole seedlings of the survival weeds were cut along the soil surface with a blade, and the fresh weight of the weeds was weighed by an analytical balance. For dead weeds, the fresh weight thereof was considered zero.\n(§7) The investigation was performed 21 days after the treatment for once in total.\n(§8) The theoretical fresh weight inhibition rate of a mixed combination of each treatment was calculated by the Gowing method (E0═X+Y−X*Y/100), then compared with the measured inhibition rate (E) to evaluate the type of the combined action of the combination of the two on weeds. The combined action was a synergistic effect when E−E0 >10%; an antagonistic effect when E−E0<−10%; an additional effect when −10%≤E−E0≤10%. An optimal ratio was determined according to factors such as actual control effects, characteristics of herbicides, balance of the formulation, etc."}, "weeds [2]": {"system": "weeds", "test": "Activity assay of compositions, post-emergence spray treatment of stems and leaves (F)", "format": "in vivo", "settings": "treatment F, A 30 g a.i./ha, 21 days after treatment", "experimental": "as §5\nWeeds were cultivated by the pot culture method. […] Weed seeds with plump and uniform grains were selected, soaked in lukewarm water at 25° C. for 6 hours, and accelerated to germinate in a 28° C. biochemical incubator (in darkness). The weed seeds that had just germinated were evenly placed on the surface of the soil and then covered with 0.5-1 cm soil according to the sizes of seeds.\nThe weeds were cultured in a controllable sunlight greenhouse at 20-30° C., in natural light and with relative humidity of 57%-72%.\nEach treatment was repeated 4 times. Three pots with 20 weed seeds sowed per pot were treated each time.\nThe drug was applied once in total in the experiment. When at 1.5-2 leaf stage, the weeds were thinned out to maintain 10 strains per pot. Thirty strains were kept in each treatment and then continued to be cultured until the 3-4 leaf stage for further treatment.\nThe well-cultured test materials were evenly placed on a 0.5 m^2 platform and foliage-sprayed by the 3WP-2000-type walking spray tower at a dosage of […] and a spray pressure of 0.3 MPa. After all the drug solution was sprayed, the air valve was closed. And 30 seconds later, the door of the spray tower was opened, and the nutritional bowl was taken out. Next, the air valve was opened, and the spray tube was cleaned by spraying 50 mL of water. The test materials were transferred to and routinely cultured in a greenhouse after the treatment.\nas §6, §7\nas §8, with “etc. In the formula, X represents the fresh weight inhibition rate of the active ingredient A in a dosage of P; Y represents the fresh weight inhibition rate of the active ingredient B in a dosage of Q. The statistical results are shown in Table 6.” for “etc.”"}, "Leptochloa chinensis": {"system": "Leptochloa chinensis", "test": "Seedling stage sealing experiment for water-seeding", "format": "in vivo", "settings": "120 g a.i./ha, 15 days, fresh weight control rate", "method_in_brief": "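Seeds sown in soil-filled bowls kept moist in water-filled boxes; compound in acetone diluted with water and spray-applied at 120, 60, 30 and 15 g a.i./ha, triplicate. After 15 days in greenhouse, fresh-weight growth control scored on a 0–9 scale (9 = dead, 0 = no effect), averaged.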"}}, "data": [{"smiles": "Cc1cc(C)cc([C@H]2CN(C)C(=O)[C@@H]2C(=O)Nc2cnn(C)c2Br)c1", "note": "[425′]", "values": [{"measurement": "Huaidao (rice cultivar) plant damage level", "setting": "Huaidao (rice cultivar)", "result": 0}, {"measurement": "Echinochloa crusgalli activity level (growth control rate)", "setting": "Echinochloa crusgalli", "result": 9}, {"measurement": "Echinochloa phyllopogon activity level (growth control rate)", "setting": "Echinochloa phyllopogon", "result": 9}, {"measurement": "Apple ring rot/% (mycelium growth inhibition rate)", "setting": "Apple ring rot", "result": 55, "unit": "%"}, {"measurement": "Tomato gray mold/% (mycelium growth inhibition rate)", "setting": "Tomato gray mold", "result": 68, "unit": "%"}, {"measurement": "Rice sheath blight/% (mycelium growth inhibition rate)", "setting": "Rice sheath blight", "result": 56, "unit": "%"}]}, {"smiles": "CN1C[C@H](c2ccc(C3CC3)cc2)[C@@H](C(=O)Nc2cnn(C)c2Cl)C1=O", "note": "[259′]", "values": [{"measurement": "Huaidao (rice cultivar) plant damage level", "setting": "Huaidao (rice cultivar)", "result": 0}, {"measurement": "Echinochloa crusgalli activity level (growth control rate)", "setting": "Echinochloa crusgalli", "result": "5 (Level 5: growth control rate greater than or equal to 50% and less than 70%)"}, {"measurement": "Apple ring rot/% (mycelium growth inhibition rate)", "setting": "Apple ring rot", "result": 51, "unit": "%"}, {"measurement": "Tomato gray mold/% (mycelium growth inhibition rate)", "setting": "Tomato gray mold", "result": 80, "unit": "%"}, {"measurement": "Rice sheath blight/% (mycelium growth inhibition rate)", "setting": "Rice sheath blight", "result": 59, "unit": "%"}]}, {"smiles": "Cc1cc(C)cc([C@H]2CN(C)C(=O)[C@@H]2C(=O)Nc2cnn(C)c2Cl)c1", "note": "[117′]", "values": [{"measurement": "Echinochloa crusgalli activity level (growth control rate)", "setting": "Echinochloa crusgalli", "result": 9}, {"measurement": "Echinochloa phyllopogon activity level (growth control rate)", "setting": "Echinochloa phyllopogon", "result": "7 (Level 7: growth control rate greater than or equal to 80% and less than 90%)"}, {"measurement": "Control effect of A applied alone in a corresponding dose (%)", "setting": "weeds [1]; Alisma plantago-aquatica, 21 days after treatment", "result": 29.6, "unit": "%"}, {"measurement": "Control effect of A applied alone in a corresponding dose (%)", "setting": "weeds [1]; Paspalum distichum, 21 days after treatment", "result": 45.7, "unit": "%"}, {"measurement": "Control effect of A applied alone in a corresponding dose (%)", "setting": "weeds [1]; Rotala indica, fresh weight inhibition 21 days after treatment", "result": 37.6, "unit": "%"}, {"measurement": "inhibition at 400 ppm", "setting": "Apple ring rot; 96 h, read-out: Apple ring rot/% (mycelium growth inhibition rate)", "result": 55, "unit": "%"}, {"measurement": "inhibition at 400 ppm", "setting": "Rice sheath blight; 96 h, read-out: Rice sheath blight/% (mycelium growth inhibition rate)", "result": 66, "unit": "%"}, {"measurement": "Control effect of A applied alone in a corresponding dose (%)", "setting": "weeds [2]; Alisma plantago-aquatica", "result": 24.8, "unit": "%"}, {"measurement": "Control effect of A applied alone in a corresponding dose (%)", "setting": "weeds [2]; Paspalum distichum", "result": 42.6, "unit": "%"}, {"measurement": "Leptochloa chinensis activity level (growth control rate)", "setting": "Leptochloa chinensis", "result": 9}]}, {"smiles": "CN1C[C@H](c2ccc3c(c2)OC(F)(F)O3)[C@@H](C(=O)Nc2cnn(C)c2Cl)C1=O", "note": "[357′]", "values": [{"measurement": "Apple ring rot/% (mycelium growth inhibition rate)", "setting": "Apple ring rot", "result": 65, "unit": "%"}, {"measurement": "Tomato gray mold/% (mycelium growth inhibition rate)", "setting": "Tomato gray mold", "result": 80, "unit": "%"}, {"measurement": "Rice sheath blight/% (mycelium growth inhibition rate)", "setting": "Rice sheath blight", "result": 50, "unit": "%"}]}]}
